{"source": "patent EP2181589A1", "about": "“Neurotoxic sterol glycosides” (Shaw, Christopher Ariel, priority 2008, dated 2010)", "key": {"Cytochrome c oxidase": {"system": "Cytochrome c oxidase", "assay": "Cytochrome c oxidase histochemistry", "type": "in vivo, CD-1 mice", "details": "for Cytochrome c oxidase activity: SG-fed vs control", "protocol": "(§1) The synthetic SG was mixed with finely ground Purina Chow mouse pellets (Mouse Diet™, Purina) to create the experimental pellets with a SG content of 1000 µg per pellet. Dry materials were blended with a sterile silicon spatula. For every 5 g of standard feed, 2.5 mL of doubly-distilled water (dd)H2O was added and the dough was kneaded and round up into pellets. A single sterol glucoside containing pellet was placed in the feeding tray each morning before the addition of regular mouse chow (ad libitum). All experimental pellets were entirely consumed by the mice each day. Control mice were fed standard mouse chow pellets of identical weight with no additives. SG feeding was conducted daily for 15 weeks and mice were behaviorally monitored until sacrifice at 35 weeks (time point 1) or 52 weeks (time point 2).\nTissue-mounted slides were processed for […] in a manner adapted from Seligman et al. (1968) and Wong-Riley (1979). Sections were rinsed in coplin jars for 15 minutes at RT in three changes of PBS and subsequently incubated with a media comprised of 50 mg of 3,3'-diaminobenzidine tetrahydrochloride (DAB) (DAB substrate system, Vector Laboratories, Burlingame, CA, USA), 90 mL 0.1M phosphate buffer, 20 mg cytochrome c (type III, Sigma-Aldrich Co., Oakville, ON, Canada), and 4 g of sucrose in a dish submerged in a water bath maintained at 37°C in the dark for 2 hours. The sections were monitored closely for the brown reaction product to appear within the tissue. Once a medium-brown color was achieved, slides were removed from the incubation media and rinsed for 15 minutes in three changes of PBS to stop the reaction. This was followed with a 2 minutes rinse in distilled water to remove residue from the slides. The slides were dried under a fume hood and cover-slipped with Entellen (Merck, Darmstadt, Germany).\nThe numbers of immunoreactive somata or inclusions were counted across the ventral horn of the spinal cord, across brain hemispheres, or per dorsal or ventral root with the 40x objective lens in a 600 µm / 600 µm area within region perimeters defined by a mouse brain atlas (2001). For each animal, eight cross-sections per spinal cord or brain region were studied. […] For quantification of the level of mitochondrial activity (cytochrome c oxidase labelling) in the lumbar spinal cord or tyrosine hydroxylase immunoreactivity in the substantia nigra pars compacta and striatal sections, images captured using the Motic B5 Professional Series 3.0 microscope (Motic Instruments Inc., Richmond, ON) and analyzed using Motic B5 Professional, Motic Images Advanced 3.0 (Motic Instruments Inc., Richmond, ON) were scanned into a TIFF format file and analysed using the NIH Image J 1.37 software to measure density levels of antibody labelling. […]"}, "CD-1 mice": {"system": "CD-1 mice", "assay": "Open field monitoring", "type": "in vivo", "details": "SG-fed vs control", "protocol": "Five-month old male CD-1 mice (30.1-35.7 g, 7.5 cm - 8.8 cm) were purchased from Charles River (Wilmington, MA). Adult mice were chosen to mimic the mean age of onset of ALS-PDC (Kurland, 1988; Kurland et al., 1994). Thirty mice for the SG study were randomly divided into 2 groups (14 control and 16 experimental animals). All animals were housed singly in a virus-free barrier facility in a room maintained at 22°C under a 12 hour light/dark cycle. The mice were provided ad libitum access to food and water.\nas §1\nOpen field monitoring: Spontaneous activity in an open field is considered one of the most standardized general measures of motor function (Crawley, 2000). The open field test can also reveal stress response in animals (i.e. defensive burying or thigmotaxis) (Karl et al., 2003). Open field testing of each animal was conducted every two weeks. A single mouse was placed in one of four round open field arena/tubs (approximately 1 m diameter) to permit the testing of four animals per 5 minute trial. […] This in turn, increases the likelihood of detection of fear-based behavior (Crawley, 2000) and minimizes habituation of the animal to the open field (Crawley, 2000). Testing arenas were cleaned with 70% ethanol before the testing of each animal and with quatricide at the end of each testing session. Movements were recorded using a video camera mounted on the ceiling. Video clips were reviewed and were manually scored or automatically analysed on an automated video tracking software (Ethovision® 3.1, Noldus Information Technologies Inc., Leesburg, VA, USA). Scoring was done on videotaped sessions, rather than in-person at the time of testing to avoid the introduction of confounding variables by the presence of an observer in close proximity to the mice (Crawley, 2000)."}}, "note": "Marks after values point to notes of the source that are not given here.", "data": [{"smiles": "CCC(C=CC(C)C1CCC2C3CC=C4CC(OC5OC(CO)C(O)C(O)C5O)CCC4(C)C3CCC12C)C(C)C", "note": "(centres unmarked) [SG]", "values": [{"measurement": "Cytochrome c oxidase Activity, Optical density", "setting": "Cytochrome c oxidase; SG-fed group over time, 35 to 52 wk", "result": "Optical density (SG-fed group over time): -36%**"}, {"measurement": "Cytochrome c oxidase activity", "setting": "Cytochrome c oxidase; 35 or 52 weeks", "result": "no significant differences"}, {"measurement": "Cytochrome c oxidase activity", "setting": "Cytochrome c oxidase; time-point 1, 35 wk", "result": "(ns)"}, {"measurement": "Cytochrome c oxidase activity", "setting": "Cytochrome c oxidase; time-point 2, 52 wk", "result": "(ns)"}, {"measurement": "Total distance moved", "setting": "CD-1 mice; time-point 1, 35 wk", "result": "Total distance moved (ns)"}, {"measurement": "Total distance to zone border", "setting": "CD-1 mice; time-point 1, 35 wk", "result": "Total distance to zone border (ns)"}, {"measurement": "Total turn angle", "setting": "CD-1 mice; time-point 1, 35 wk", "result": "Total turn angle (ns)"}, {"measurement": "Total distance to zone border", "setting": "CD-1 mice; time-point 2, 52 wk", "result": "Total distance to zone border* (*p<0.05)"}]}]}
